Results on 10 molecules are retold here after ChEMBL document CHEMBL1201862, “PubChem BioAssay data set” (2004).

Assay in all cases: DTP human tumour cell line panel, 48 h
Experiment [1] has as its system CAKI-1.
The subject of experiment [2] is NCI-H522.
Experiment [3] concerns UACC-257.
Experiment [4] concerns NCI-H23.
In experiment [5] the test system is OVCAR-4.
Experiment [6] relates to MDA-MB-435.
In experiment [7] the test system is 786-0.
Experiment [8] has as its system TK-10.
For experiment [9], the system named is Hs-578T.
Experiment [10] deals with SK-MEL-5.
Experiment [11] has as its system SF-295.
In experiment [12] the test system is HOP-62.
In experiment [13] the test system is NCI/ADR-RES.
Experiment [14] has as its system HCT-15.
The subject of experiment [15] is EKVX.
Experiment [16] deals with OVCAR-3.
Experiment [17] concerns LOX IMVI.
Experiment [18] concerns UO-31.
In experiment [19] the test system is A498.
The test system of experiment [20] is SF-268.

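The compound was tested at five concentrations on cells cultured in 96-well plates, with a 48-hour exposure period. GI50 is the concentration that inhibits growth by half.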 The source made the active and inactive calls. Cut-off read from the data, not from the text of the source: active = GI50 up to about 1.1 µM and inactive = higher.

Take `O=C1N=C(Nc2ccccc2Cl)N/C1=C\c1ccc(Cl)cc1Cl`: the GI50 in [1] was > 100 µM (inactive); in experiment [2], 11.9 µM (inactive); in experiment [3], 75.3 µM (inactive); in [4] it was > 100 µM (inactive); in experiment [5], 44.3 µM (inactive); in [6], 5.96 µM (inactive). For the same molecule, the GI50 in [7] is 68.2 µM (inactive); in [8] it was > 100 µM (inactive); in experiment [9] it was > 100 µM (inactive); in experiment [10] it was 71.9 µM (inactive); in experiment [11], 60.8 µM (inactive); in [12] it was 62.4 µM (inactive). Further, the GI50 in experiment [13] was 45.6 µM (inactive); in [14], 39.5 µM; in experiment [15] it was > 100 µM (inactive); in [16], 66.1 µM (inactive); in experiment [17] it was > 100 µM (inactive); in [18], > 100 µM (inactive). The results for the GI50 in experiment [19] and in [20] were 33.1 µM (inactive) and > 100 µM (inactive), respectively.

For `COC(=O)c1c[nH]c2c1-c1cc(C(=O)OCc3ccccc3)n(S(=O)(=O)c3ccc(C)cc3)c1C(=O)C2=O`, the GI50 is 1.31 µM (inactive) in [1]; 0.207 µM (active) in [2]; 0.156 µM (active) in [3]; 0.149 µM (active) in experiment [4]; 0.299 µM (active) in [5]; 0.0318 µM (active) in experiment [6]. Besides, the concentration for 50% growth inhibition (GI50) in [7] is 0.22 µM (active); in experiment [8], 2 µM (inactive); in [9], 0.578 µM (active); in experiment [10], 0.132 µM (active); in [11] it was 0.17 µM (active); in [12], 0.376 µM (active). The GI50 in experiment [13] was 0.45 µM (active); in [14], 0.194 µM; in [15] it was 0.173 µM (active); in [16], 0.0316 µM (active); in experiment [17] it was 0.139 µM (active); in experiment [18], 0.327 µM (active). Besides, the GI50 in experiment [19] was 1.85 µM (inactive); in experiment [20], 0.234 µM (active).

Regarding `O=S(=O)(c1ccc(Br)cc1)n1c2ccc(Br)cc2c2nc3ccccc3nc21`, the GI50 in [1] is > 100 µM (inactive); in experiment [2] it was > 100 µM (inactive); in [3], > 100 µM (inactive); in experiment [4], > 100 µM (inactive); in experiment [5] it was 67.9 µM (inactive); in [6], > 100 µM (inactive). The GI50 in experiment [7] was 31.6 µM (inactive); in [8], 82 µM (inactive); in experiment [9], 47.6 µM (inactive); in [10], > 100 µM (inactive); in experiment [11], 68.1 µM (inactive); in experiment [12] it was 34.3 µM (inactive). Also, the GI50 in [13] was > 100 µM (inactive); in [14], more than 100 µM; in [15] it was > 100 µM (inactive); in experiment [16], > 100 µM (inactive); in [17] it was > 100 µM (inactive); in experiment [18] it was > 100 µM (inactive). Further, the GI50 in experiment [19] was > 100 µM (inactive); in experiment [20] it was 85.9 µM (inactive).

Turning to `O=C1N2CCc3c([nH]c4ccccc34)C23CC2CCCCC12S3` (stereo not given), the GI50 in experiment [1] was > 100 µM (inactive); in experiment [2], > 100 µM (inactive); in experiment [3] it was 18.5 µM (inactive); in [4], > 100 µM (inactive); in experiment [5], > 100 µM (inactive); in [6] it was > 100 µM (inactive). Besides, the GI50 is > 100 µM (inactive) in [7]; 28.3 µM (inactive) in experiment [8]; > 100 µM (inactive) in experiment [9]; 63.5 µM (inactive) in experiment [10]; > 100 µM (inactive) in experiment [11]; > 100 µM (inactive) in experiment [12]. Moreover, the GI50 in experiment [13] was > 100 µM (inactive); in [14], more than 100 µM; in experiment [15] it was > 100 µM (inactive); in experiment [16], > 100 µM (inactive); in [17], > 100 µM (inactive); in [18], > 100 µM (inactive). Moreover, the GI50 in experiment [19] and in experiment [20] was > 100 µM (inactive) each time.

Turning to `COC1/C=C/C(C)C(C(C)C(OC)C(C)CCC(=O)C(C)C(C/C=C/N(C)C=O)OC)OC(=O)C=CC2OC2(C)CC(OC)C(OC)C2=CC(=O)O[C@@H](C(C)C(OC)CC(OC)/C=C/C(C)C(O)C1)[C@H]2O` (stereo not given in full), the GI50 in [1] is 0.00267 µM (active); in experiment [2] it was 0.00369 µM (active); in experiment [3] it was 0.0105 µM (active); in experiment [4], 0.0239 µM (active); in [5] it was 0.0208 µM (active); in experiment [6] it was 0.0137 µM (active). Further, the GI50 in experiment [7] was 0.00451 µM (active); in [8] it was 0.0119 µM (active); in experiment [9], 0.00448 µM (active); in experiment [10], 0.0128 µM (active); in [11] it was 0.00775 µM (active); in [12], 0.00497 µM (active). In addition, the concentration for 50% growth inhibition (GI50) was 0.0254 µM (active) in experiment [13]; 0.00631 µM in [14]; 0.00562 µM (active) in experiment [15]; 0.0108 µM (active) in [16]; 0.002 µM (active) in experiment [17]; 0.00308 µM (active) in experiment [18]. Besides, the results for the concentration for 50% growth inhibition (GI50) in [19] and in experiment [20] were 0.00785 µM (active) and 0.00451 µM (active), respectively.

Consider `O=C(CSCC(=O)N/N=C/c1cccs1)N/N=C/c1cccs1`, for which the GI50 in experiment [1] was 46.6 µM (inactive); in experiment [2], 38.6 µM (inactive); in experiment [3], > 100 µM (inactive); in experiment [4], 38.8 µM (inactive); in [5], 45.2 µM (inactive); in experiment [6], > 100 µM (inactive). Besides, the GI50 in [7] was 47.6 µM (inactive); in [8], > 100 µM (inactive); in experiment [9] it was 61.1 µM (inactive); in [10] it was 76.4 µM (inactive); in [11] it was 52.7 µM (inactive); in experiment [12], 46.3 µM (inactive). For the same molecule, the GI50 in experiment [13] is 40 µM (inactive); in [14], more than 100 µM; in [15] it was 61.5 µM (inactive); in experiment [16] it was 38.6 µM (inactive); in experiment [17], > 100 µM (inactive); in [18] it was 48.3 µM (inactive). Moreover, the GI50 in experiment [19] was > 100 µM (inactive); in [20], 72.9 µM (inactive).

For `O=Cc1ccc(-c2ccc(-c3ccc(CO)s3)o2)s1`, the 50% growth inhibitory concentration (GI50) is 0.186 µM (active) in [1]; 15.7 µM (inactive) in [2]; 0.364 µM (active) in experiment [3]; 21.9 µM (inactive) in experiment [4]; 0.318 µM (active) in [5]; 8.32 µM (inactive) in experiment [6]. Moreover, the GI50 in experiment [7] is 2.47 µM (inactive); in [8], 0.237 µM (active); in [9], 16 µM (inactive); in experiment [10], 5.48 µM (inactive); in experiment [11] it was 14.5 µM (inactive); in [12], 17.4 µM (inactive). Besides, the GI50 in experiment [13] is 10.6 µM (inactive); in experiment [14] it was 24.4 µM; in experiment [15], 23.5 µM (inactive); in experiment [16], 0.372 µM (active); in experiment [17] it was 9.04 µM (inactive); in experiment [18] it was 15.6 µM (inactive). The GI50 was 0.104 µM (active) in experiment [19] and 18.6 µM (inactive) in experiment [20].

Turning to `CCCC1CC(=O)NC(=O)C1C(=O)OC(C)(C)C` (stereo not given), the GI50 in [1], in experiment [2], in [3], in experiment [4], in [5] and in [6] was > 100 µM (inactive) each time. In addition, the GI50 in experiment [7], in [8], in [9], in [10], in [11] and in experiment [12] was > 100 µM (inactive) throughout. For the same molecule, the GI50 in [13] was > 100 µM (inactive); in experiment [14] it was more than 100 µM; in experiment [15], > 100 µM (inactive); in experiment [16] it was > 100 µM (inactive); in experiment [17], > 100 µM (inactive); in experiment [18], > 100 µM (inactive). Further, the GI50 in [19] and in experiment [20] was > 100 µM (inactive) each time.

For the molecule `CCCCN1C(=O)C2Cc3c([nH]c4ccccc34)C(c3cccc(O)c3)N2C1=O` (stereo not given), the GI50 in [1] is 18.7 µM (inactive); in experiment [2], 20 µM (inactive); in [3], 18.7 µM (inactive); in experiment [4], 20.3 µM (inactive); in experiment [5] it was 18.7 µM (inactive); in [6], 17.3 µM (inactive). Further, the GI50 is 18.9 µM (inactive) in experiment [7]; 18.3 µM (inactive) in experiment [8]; 27.9 µM (inactive) in [9]; 17 µM (inactive) in experiment [10]; 17.4 µM (inactive) in [11]; 18.5 µM (inactive) in [12]. The GI50 in [13] was 18.5 µM (inactive); in experiment [14], 18.7 µM; in [15], 17.9 µM (inactive); in experiment [16], 16.3 µM (inactive); in experiment [17], 18 µM (inactive); in experiment [18] it was 17.5 µM (inactive). Besides, the GI50 in experiment [19] is 18.5 µM (inactive); in experiment [20] it was 19.1 µM (inactive).

As for `C#CCSC(C=C=C)P(=O)(OC(C)C)OC(C)C` (stereo not given), the GI50 in [1] is > 100 µM (inactive); in experiment [2] it was 23.3 µM (inactive); in [3], > 100 µM (inactive); in [4] it was > 100 µM (inactive); in experiment [5], > 100 µM (inactive); in experiment [6], > 100 µM (inactive). The GI50 was 46.2 µM (inactive) in experiment [7]; 43.2 µM (inactive) in experiment [8]; 12.9 µM (inactive) in experiment [9]; > 100 µM (inactive) in experiment [10]; > 100 µM (inactive) in [11]; > 100 µM (inactive) in experiment [12]. The GI50 in [13] is > 100 µM (inactive); in experiment [14], 30.5 µM; in experiment [15] it was > 100 µM (inactive); in [16], > 100 µM (inactive); in [17], > 100 µM (inactive); in experiment [18] it was > 100 µM (inactive). Further, the GI50 in experiment [19] was 36.8 µM (inactive); in [20], 90.8 µM (inactive).

The GI50 is the concentration at which growth is held to half of that of the control.
